Test results reported in patent US12064502B2, “Peptide exhibiting wrinkle-improving activity and uses thereof” (CAREGEN CO., LTD., priority 2017, dated 2024).
Values joined by “and” are separate entries in the source; they are usually repeats but may differ in a detail not shown here. Identical values can stand only once.

Columns and labels:
Human keratinocyte HaCaT = assay: Promotion of proliferation of keratinocytes (MTT assay); format: cell-based; settings: 3 days, control = 100
Procedure: Human keratinocyte HaCaT was seeded in a 6-well plate at a density of 3×10^5 cells/well, and then cultured overnight. Subsequently, the media were changed to 0.05% serum-containing media. Then, treatment with the positive control, i.e., 10 nM EGF, and 10 μM or 50 μM of the peptide consisting of an amino acid sequence of SEQ ID NO: 1, 2, 3, or 4 were performed and cultured for 3 days. Then, 4 mg/mL MTT solution treatment was performed, and the reaction was carried out for 4 hours. Then, the resulting formazan was dissolved by treatment with dimethyl sulfoxide (hereinafter referred to as “DMSO”), and the absorbance at 560 nm was measured using a microplate reader.

HA = HA ELISA; format: cell-based, human; settings: 72 hours; for HA expression: HaCaT medium, control 251
Procedure: Human keratinocyte HaCaT was seeded in a 6-well plate at a density of 3×10^5 cells/well, and then cultured overnight. The media were changed to 0.05% FBS-containing media, followed by culturing for 4 hours. Then, treatment with the positive control, i.e., 100 nM IGF-1, and the peptide consisting of an amino acid sequence of SEQ ID NO: 2 were performed and cultured for 72 hours. Then, the media were collected. An HA ELISA kit (Echelon, USA) was used to measure an amount thereof.

ERK and p38 = assay: Phosphorylation level of MAPK and AKT in keratinocytes (western blotting); format: cell-based, human; settings: 10 μM or 50 μM, HaCaT, 30 minutes
Procedure: Human keratinocyte HaCaT was seeded in a 6-well plate at a density of 3×10^5 cells/well, and then cultured overnight. Subsequently, the media were changed to 0.05% FBS-containing media. Then, treatment with the positive control, i.e., 10 nM EGF, and 10 μM or 50 μM of the peptide consisting of an amino acid sequence of SEQ ID NO: 1 or 2 were performed and cultured for 30 minutes. Then, the cells were collected to prepare cell lysate. Then, western blotting was performed using P-MAPK (p-Erk, p-JNK, p-p38) and p-Akt antibody (Santacruz Biotechnology, USA).

AQP3 = assay: RT-PCR of AQP3 (Aquaporin3) and SIRT1 in keratinocytes; format: cell-based, human; settings: 10 μM or 50 μM, HaCaT, 24 hours
Procedure: Human keratinocyte HaCaT was seeded in a 6-well plate at a density of 3×10^5 cells/well, and then cultured overnight. Subsequently, the media were changed to 0.05% FBS-containing media, followed by culturing for 4 hours. Then, treatment with the positive control, i.e., 100 nM EGF, and 10 μM or 50 μM of the peptide consisting of an amino acid sequence of SEQ ID NO: 1 or 2 were performed and cultured for 24 hours. Then, the cells were cultured and collected to isolate RNA. cDNA was synthesized using a cDNA synthesis kit (Intron, Korea) after quantification of RNA, and PCR was carried out using primers of each of PCR premix (Intron, Korea) and AQP3, SIRT1, and GAPDH in Table 5. Then, the cells were run on 5% agarose gel, and degrees of mRNA expression of the growth factors were compared in each peptide treatment condition.

[1] = tested on: collagen 1a, fibronectin, and elastin; assay: Expression amount of collagen1a, fibronectin and elastin protein (antibody staining, fluorescence microscope); format: cell-based, mouse; settings: NIH3T3, 24 hours
Procedure: Mouse fibroblast NIH3T3 was seeded in a 6-well plate at a density of 5×10^3 cells/well, and then cultured overnight. Subsequently, the media were changed to 0.05% serum-free media. Then, treatment with the positive control, i.e., 100 nM EGF, and the peptide consisting of an amino acid sequence of SEQ ID NO: 1 or 2 were performed and cultured for 24 hours. Then, the cells were fixed for 30 minutes using 4% paraformaldehyde. Then, after washing 3 times, the cells were reacted with 0.5% Triton X-100 for 15 minutes and washed again 3 times. Then, 3% BSA was blocked for 1 hour and the primary antibody (1:100) for collagen 1a, fibronectin, and elastin was reacted overnight at 4° C. Then, the secondary antibody (1:500) was reacted at room temperature for 2 hours, stained with DAPI staining, and observation was made with a fluorescence microscope.

Mouse fibroblast NIH3T3 = assay: Promotion of proliferation of fibroblasts (MTT assay); format: cell-based; settings: NIH3T3, 3 days; for Fibroblast proliferation (result in words): 10 μM or 50 μM; for Fibroblast proliferation (%): MTT, control = 100
Procedure: Mouse fibroblast NIH3T3 was seeded in a 96-well plate at a density of 5×10^3 cells/well, and then cultured overnight. Subsequently, the media were changed to 0.05% serum-containing media. Then, treatment with the positive control, i.e., 100 nM bFGF, and 10 μM or 50 μM of the peptide consisting of an amino acid sequence of SEQ ID NO: 1, 2, 3, or 4 were performed and cultured for 3 days. Then, 4 mg/mL MTT solution treatment was performed, and the reaction was carried out for 4 hours. Then, the resulting formazan was dissolved by treatment with dimethyl sulfoxide (hereinafter referred to as “DMSO”), and the absorbance at 560 nm was measured using a microplate reader.

[2] = tested on: MAPK (ERK, p38, and JNK) and AKT; assay: Phosphorylation level of MAPK and AKT in fibroblasts (western blotting); format: cell-based, mouse; settings: 10 μM or 50 μM, NIH3T3, 30 minutes
Procedure: Mouse fibroblast NIH3T3 was seeded in a 6-well plate at a density of 5×10^3 cells/well, and then cultured overnight. Subsequently, the media were changed to 0.05% FBS-containing media. Then, treatment with the positive control, i.e., 100 nM bFGF, and 10 μM or 50 μM of the peptide consisting of an amino acid sequence of SEQ ID NO: 1, 2, 3, or 4 were performed and cultured for 30 minutes. Then, the cells were collected to prepare cell lysate. Then, western blotting was performed using P-MAPK (p-Erk, p-JNK, p-p38) and p-Akt or actin antibody (Santacruz Biotechnology, USA).

[3] = tested on: collagen1a, fibronectin, elastin mRNA; assay: RT-PCR of collagen1a, fibronectin and elastin in fibroblasts; format: cell-based, mouse; settings: 10 μM or 50 μM, NIH3T3, 24 hours
Procedure: Mouse fibroblast NIH3T3 was seeded in a 6-well plate at a density of 5×10^3 cells/well, and then cultured overnight. Subsequently, the media were changed to 0.05% FBS-containing media, followed by culturing for 4 hours. Then, treatment with the positive control, i.e., 100 nM IGF-1, and 10 μM or 50 μM of the peptide consisting of an amino acid sequence of SEQ ID NO: 1, 2, 3, or 4 were performed and cultured for 24 hours. Then, the cells were cultured and collected to isolate RNA. cDNA was synthesized using a cDNA synthesis kit (Intron, Korea) after quantification of RNA, and PCR was carried out using primers of each of PCR premix (Intron, Korea) and collagen1a, fibronectin, elastin, GAPDH in Table 4. Then, the cells were run on 5% agarose gel, and degrees of mRNA expression of the growth factors were compared in each peptide treatment condition.

Procollagen1a = Procollagen1a ELISA; format: cell-based, mouse; settings: for Pro-collagen1a protein expression (result in words): NIH3T3, 72 hours, ELISA; for Procollagen1a expression (%): NIH3T3 medium, 72 hours, control = 100
Procedure: Mouse fibroblast NIH3T3 was seeded in a 6-well plate at a density of 5×10^3 cells/well, and then cultured overnight. Subsequently, the media were changed to 0.05% FBS-containing media, followed by culturing for 4 hours. Then, treatment with the positive control, i.e., 100 nM IGF-1, and the peptide consisting of an amino acid sequence of SEQ ID NO: 1, 2, 3, or 4 were performed and cultured for 72 hours. Then, the media were collected. The amount in the medium was measured using Procollagen1a ELISA kit (Usbiological Lifescience, USA).

| Substance | Keratinocyte proliferation (%) (Human keratinocyte HaCaT; peptide 10 μM) | Keratinocyte proliferation (%) (Human keratinocyte HaCaT; peptide 50 μM) | HA expression (result in words) (HA; HaCaT, ELISA) | HA expression (HA; peptide 10 μM) [ng/mL] | HA expression (HA; peptide 50 μM) [ng/mL] | Phosphorylation of MAPK in keratinocytes (result in words) (ERK and p38) | AQP3 expression (result in words) (AQP3) | Protein expression of collagen, fibronectin and elastin (result in words) [1] | Fibroblast proliferation (result in words) (Mouse fibroblast NIH3T3) | Fibroblast proliferation (%) (Mouse fibroblast NIH3T3; peptide 10 μM) | Fibroblast proliferation (%) (Mouse fibroblast NIH3T3; peptide 50 μM) | Phosphorylation of MAPK and AKT in fibroblasts (result in words) [2] | mRNA expression of collagen, fibronectin and elastin (result in words) [3] | Pro-collagen1a protein expression (result in words) (Procollagen1a) | Procollagen1a expression (%) (Procollagen1a; peptide 10 μM) | Procollagen1a expression (%) (Procollagen1a; peptide 50 μM) | Fibroblast proliferation (%) (Mouse fibroblast NIH3T3; positive control 100 nM) | HA expression (HA; positive control 100 nM) [ng/mL] | Procollagen1a expression (%) (Procollagen1a; positive control 100 nM) | Keratinocyte proliferation (%) (Human keratinocyte HaCaT; positive control 10 nM) |
| --- | --- | --- | --- | --- | --- | --- | --- | --- | --- | --- | --- | --- | --- | --- | --- | --- | --- | --- | --- | --- |
| ILGRWCG [SEQ ID NO: 2] | 111 | 119 | increasing HA expression | 286 | 292 | activation of ERK and p38 | increasing AQP3 expression | increasing expression of proteins of collagen, fibronectin, and elastin | promote fibroblast proliferation | 188 | 253 | activation of MAPK (ERK, p38, and JNK) and AKT | increasing expression of mRNA of collagen, fibronectin, and elastin | expression of pro-collagen1a protein was found to increase | 145 | 146 | – | – | – | – |
| bFGF: positive control, 100 nM bFGF, in the fibroblast tests [reference compound] | – | – | – | – | – | – | – | – | – | – | – | – | – | – | – | – | 386% and 279% and 400% | – | – | – |
| KWGGGRY [SEQ ID NO: 1] | 120 | 136 | – | – | – | activation of ERK and p38 | increasing AQP3 expression | increasing expression of proteins of collagen, fibronectin, and elastin | promote fibroblast proliferation | 170 | 194 | activation of MAPK (ERK, p38, and JNK) and AKT | increasing expression of mRNA of collagen, fibronectin, and elastin | expression of pro-collagen1a protein was found to increase | 98 | 157 | – | – | – | – |
| IGF-1: positive control, 100 nM IGF-1, in the ELISA and RT-PCR tests [reference compound] | – | – | – | – | – | – | – | – | – | – | – | – | – | – | – | – | – | 280 | 113% and 140% | – |
| EDEFKPPAAGR [SEQ ID NO: 4] | 113 | 142 | – | – | – | – | – | – | promote fibroblast proliferation | 114 | 193 | activation of MAPK (ERK, p38, and JNK) and AKT | increasing expression of mRNA of collagen, fibronectin, and elastin | expression of pro-collagen1a protein was found to increase | 122 | 141 | – | – | – | – |
| GPVH [SEQ ID NO: 3] | 183 | 197 | – | – | – | – | – | – | promote fibroblast proliferation | 194 | 261 | activation of MAPK (ERK, p38, and JNK) and AKT | increasing expression of mRNA of collagen, fibronectin, and elastin | expression of pro-collagen1a protein was found to increase | 138 | 143 | – | – | – | – |
| EGF: positive control, 10 nM EGF, in the keratinocyte tests [reference compound] | – | – | – | – | – | – | – | – | – | – | – | – | – | – | – | – | – | – | – | 187% and 142% and 152% |
